One may read the IC50 as the concentration that inhibits the measured activity by half.

Where only a bound is given, the exact number is not on record here.

Our source for the IC50 values is patent publication US20210395256A1, “TYROSINE KINASE INHIBITORS, COMPOSITIONS AND METHODS THERE OF” (Betta Pharmaceuticals Co., Ltd., priority 2018, published 2021).

Chain of TrkA kinase (P04629 33-796): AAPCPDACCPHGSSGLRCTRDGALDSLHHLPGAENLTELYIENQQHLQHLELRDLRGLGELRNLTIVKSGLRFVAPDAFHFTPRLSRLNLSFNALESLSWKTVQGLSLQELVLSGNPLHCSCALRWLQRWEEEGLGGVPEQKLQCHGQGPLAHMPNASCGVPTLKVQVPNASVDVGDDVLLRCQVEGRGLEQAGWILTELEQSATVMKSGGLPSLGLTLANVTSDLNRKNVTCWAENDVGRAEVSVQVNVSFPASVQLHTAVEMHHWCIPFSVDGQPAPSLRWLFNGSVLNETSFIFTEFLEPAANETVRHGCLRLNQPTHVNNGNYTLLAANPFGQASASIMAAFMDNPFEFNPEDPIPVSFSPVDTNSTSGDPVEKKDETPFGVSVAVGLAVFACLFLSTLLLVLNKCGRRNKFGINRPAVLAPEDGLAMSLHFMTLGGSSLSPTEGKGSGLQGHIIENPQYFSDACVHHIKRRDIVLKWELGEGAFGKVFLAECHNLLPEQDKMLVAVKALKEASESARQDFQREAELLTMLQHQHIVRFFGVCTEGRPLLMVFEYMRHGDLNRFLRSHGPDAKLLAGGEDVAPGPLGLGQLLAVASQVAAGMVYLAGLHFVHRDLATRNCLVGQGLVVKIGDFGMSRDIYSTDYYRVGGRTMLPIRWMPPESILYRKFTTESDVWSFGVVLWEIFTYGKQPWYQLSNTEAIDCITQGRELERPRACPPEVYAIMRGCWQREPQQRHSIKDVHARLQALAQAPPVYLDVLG

The first assay deals with TrkA kinase (Homo sapiens, UniProt P04629). Kind of assay: TrkA kinase assay (mobility shift assay). In kind it is biochemical. Particulars: class symbols; read-out: Trk A Kinase IC50. A digest of the protocol:
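Ten-point compound series was preincubated 10 min at room temperature with TrkA, then FAM-peptide plus ATP added in HEPES pH 7.5/Brij-35 buffer and reacted at 28 °C before EDTA quench.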
`Fc1ccc(F)c([C@H]2CCCN2c2ccn3ncc(-c4nc5cc(F)c(C(F)(F)F)cc5[nH]4)c3n2)c1` [Compound 139, (R)-5-(2-(2,5-difluorophenyl)pyrrolidin-1-yl)-3-(5-fluoro-6-(trifluoromethyl)-1H-benzo[d]imidazol-2-yl)pyrazolo[1,5-a]pyrimidine]: the IC50 was more than 50 nM.
For `CCOc1cc2[nH]c(-c3cnn4ccc(N5CCC[C@@H]5c5cc(F)ccc5F)nc34)nc2cc1C#N` [Compound 140, (R)-2-(5-(2-(2,5-difluorophenyl)pyrrolidin-1-yl)pyrazolo[1,5-a]pyrimidin-3-yl)-6-ethoxy-1H-benzo[d]imidazole-5-carbonitrile], the IC50 is not above 10 nM.
`CNc1cc2[nH]c(-c3cnn4ccc(N5CCC[C@@H]5c5cc(F)ccc5F)nc34)nc2cc1C#N` [Compound 142, (R)-2-(5-(2-(2,5-difluorophenyl)pyrrolidin-1-yl)pyrazolo[1,5-a]pyrimidin-3-yl)-6-(methylamino)-1H-benzo[d]imidazole-5-carbonitrile]: the IC50 was not above 10 nM.
In the case of `N#Cc1cc2nc(-c3cnn4ccc(N5CCC[C@@H]5c5cc(F)ccc5F)nc34)[nH]c2cc1N1CCOCC1` [Compound 143, (R)-2-(5-(2-(2,5-difluorophenyl)pyrrolidin-1-yl)pyrazolo[1,5-a]pyrimidin-3-yl)-6-morpholino-1H-benzo[d]imidazole-5-carbonitrile], the IC50 is not above 10 nM.
The same measure, in the same setting: for `N#Cc1cc2nc(-c3cnn4ccc(N5CCC[C@@H]5c5cc(F)ccc5F)nc34)[nH]c2cc1N1CC(O)C1` [Compound 145, (R)-2-(5-(2-(2,5-difluorophenyl)pyrrolidin-1-yl)pyrazolo[1,5-a]pyrimidin-3-yl)-6-(3-hydroxyazetidin-1-yl)-1H-benzo[d]imidazole-5-carbonitrile] the value was not above 10 nM; for `O=C1NCCNc2cc3[nH]c(-c4cnn5ccc(N6CCC[C@@H]6c6cc(F)ccc6F)nc45)nc3cc21` [Compound 146, (R)-2-(5-(2-(2,5-difluorophenyl)pyrrolidin-1-yl)pyrazolo[1,5-a]pyrimidin-3-yl)-5,6,7,8-tetrahydroimidazo[4′,5′:4,5]benzo[1,2-e][1,4]diazepin-9(3H)-one], not above 10 nM; for `O=C1NCCOc2cc3[nH]c(-c4cnn5ccc(N6CCC[C@@H]6c6cc(F)ccc6F)nc45)nc3cc21` [Compound 147, (R)-2-(5-(2-(2,5-difluorophenyl)pyrrolidin-1-yl)pyrazolo[1,5-a]pyrimidin-3-yl)-7,8-dihydro-3H-imidazo[4′,5′:4,5]benzo[1,2-f][1,4]oxazepin-9(6H)-one], not above 10 nM.
Same read-out and setting: for `N#Cc1cc2nc(-c3cnn4ccc(N5CCC[C@@H]5c5cc(F)ccc5F)nc34)[nH]c2cc1O` [Compound 149, (R)-2-(5-(2-(2,5-difluorophenyl)pyrrolidin-1-yl)pyrazolo[1,5-a]pyrimidin-3-yl)-6-hydroxy-1H-benzo[d]imidazole-5-carbonitrile] the value was not above 10 nM; for `N#Cc1cc2nc(-c3cnn4ccc(N5CCC[C@@H]5c5cc(F)ccc5F)nc34)[nH]c2cc1OCCO` [Compound 150, (R)-2-(5-(2-(2,5-difluorophenyl)pyrrolidin-1-yl)pyrazolo[1,5-a]pyrimidin-3-yl)-6-(2-hydroxyethoxy)-1H-benzo[d]imidazole-5-carbonitrile], not above 10 nM.
On the same count and under the same terms, with `N#Cc1cc2nc(-c3cnn4ccc(N5CCC[C@@H]5c5cc(F)ccc5F)nc34)[nH]c2cc1Br` [Compound 151, (R)-6-bromo-2-(5-(2-(2,5-difluorophenyl)pyrrolidin-1-yl)pyrazolo[1,5-a]pyrimidin-3-yl)-1H-benzo[d]imidazole-5-carbonitrile] the figure was not above 10 nM; with `COC(=O)c1cc2[nH]c(-c3cnn4ccc(N5CCC[C@@H]5c5cc(F)ccc5F)nc34)nc2cc1C#N` [Compound 152, methyl (R)-5-cyano-2-(5-(2-(2,5-difluorophenyl)pyrrolidin-1-yl)pyrazolo[1,5-a]pyrimidin-3-yl)-1H-benzo[d]imidazole-6-carboxylate], not above 10 nM.
`N#Cc1cc2nc(-c3cnn4ccc(N5CCC[C@@H]5c5cc(F)ccc5F)nc34)[nH]c2cc1C(=O)O` [Compound 153, (R)-5-cyano-2-(5-(2-(2,5-difluorophenyl)pyrrolidin-1-yl)pyrazolo[1,5-a]pyrimidin-3-yl)-1H-benzo[d]imidazole-6-carboxylic acid]: the IC50 is not above 10 nM.
With `N#Cc1cc2nc(-c3cnn4ccc(N5CCC[C@@H]5c5cc(F)ccc5F)nc34)[nH]c2cc1C(N)=O` [Compound 154, (R)-5-cyano-2-(5-(2-(2,5-difluorophenyl)pyrrolidin-1-yl)pyrazolo[1,5-a]pyrimidin-3-yl)-1H-benzo[d]imidazole-6-carboxamide], the IC50 was not above 10 nM.
Consider `COC(=O)c1c(F)ccc2nc(-c3cnn4ccc(N5CCC[C@@H]5c5cc(F)ccc5F)nc34)[nH]c12` [Compound 158, methyl (R)-2-(5-(2-(2,5-difluorophenyl)pyrrolidin-1-yl)pyrazolo[1,5-a]pyrimidin-3-yl)-6-fluoro-1H-benzo[d]imidazole-7-carboxylate], for which the IC50 was not above 10 nM.
The same measure, in the same setting: for `Cc1cc2[nH]c(-c3cnn4ccc(N5CCC[C@@H]5c5cc(F)ccc5F)nc34)nc2cc1C#N` [Compound 159, (R)-2-(5-(2-(2,5-difluorophenyl)pyrrolidin-1-yl)pyrazolo[1,5-a]pyrimidin-3-yl)-6-methyl-1H-benzo[d]imidazole-5-carbonitrile] the value was not above 10 nM.
As to `CN1CCN(c2cc3[nH]c(-c4cnn5ccc(N6CCC[C@@H]6c6cc(F)ccc6F)nc45)nc3cc2C#N)CC1` [Compound 163, (R)-2-(5-(2-(2,5-difluorophenyl)pyrrolidin-1-yl)pyrazolo[1,5-a]pyrimidin-3-yl)-6-(4-methylpiperazin-1-yl)-1H-benzo[d]imidazole-5-carbonitrile], the IC50 was not above 10 nM.
Same read-out and setting: with `N#Cc1cc2nc(-c3cnn4ccc(N5CCC[C@@H]5c5cc(F)ccc5F)nc34)[nH]c2cc1N1CC[C@H](O)C1` [Compound 164, 2-(5-((R)-2-(2,5-difluorophenyl)pyrrolidin-1-yl)pyrazolo[1,5-a]pyrimidin-3-yl)-6-((S)-3-hydroxypyrrolidin-1-yl)-1H-benzo[d]imidazole-5-carbonitrile] the figure was not above 10 nM; with `N#Cc1cc2nc(-c3cnn4ccc(N5CCC[C@@H]5c5cc(F)ccc5F)nc34)[nH]c2cc1N1CCC[C@H]1C#N` [Compound 165, 6-((S)-2-cyanopyrrolidin-1-yl)-2-(5-((R)-2-(2,5-difluorophenyl)pyrrolidin-1-yl)pyrazolo[1,5-a]pyrimidin-3-yl)-1H-benzo[d]imidazole-5-carbonitrile], not above 10 nM; with `CN(C)CCN(C)c1cc2[nH]c(-c3cnn4ccc(N5CCC[C@@H]5c5cc(F)ccc5F)nc34)nc2cc1C#N` [Compound 168, (R)-2-(5-(2-(2,5-difluorophenyl)pyrrolidin-1-yl)pyrazolo[1,5-a]pyrimidin-3-yl)-6-((2-(dimethylamino)ethyl)(methyl)amino)-1H-benzo[d]imidazole-5-carbonitrile], not above 10 nM.
Consider `CS(=O)(=O)c1ccc2nc(-c3cnn4ccc(N5CCC[C@@H]5c5cc(F)ccc5F)nc34)[nH]c2c1` [Compound 170, (R)-5-(2-(2,5-difluorophenyl)pyrrolidin-1-yl)-3-(6-(methylsulfonyl)-1H-benzo[d]imidazol-2-yl)pyrazolo[1,5-a]pyrimidine], for which the IC50 was not above 10 nM.
Same read-out and setting: with `COc1cc2oc(-c3cnn4ccc(N5CCC[C@@H]5c5cc(F)ccc5F)nc34)nc2cc1C#N` [Compound 174, (R)-2-(5-(2-(2,5-difluorophenyl)pyrrolidin-1-yl)pyrazolo[1,5-a]pyrimidin-3-yl)-6-methoxybenzo[d]oxazole-5-carbonitrile] the figure was not above 10 nM; with `COC(=O)c1ccc(F)c2nc(-c3cnn4ccc(N5CCC[C@@H]5c5cc(F)ccc5F)nc34)oc12` [Compound 175, methyl (R)-2-(5-(2-(2,5-difluorophenyl)pyrrolidin-1-yl)pyrazolo[1,5-a]pyrimidin-3-yl)-4-fluorobenzo[d]oxazole-7-carboxylate], not above 10 nM.
`N#Cc1cc2nc(-c3cnn4ccc(N5CCC[C@@H]5c5cc(F)ccc5F)nc34)oc2cc1OC(F)(F)F` [Compound 176, (R)-2-(5-(2-(2,5-difluorophenyl)pyrrolidin-1-yl)pyrazolo[1,5-a]pyrimidin-3-yl)-6-(trifluoromethoxy)benzo[d]oxazole-5-carbonitrile]: the IC50 lay in the range of 10 to 50 nM.
For `COC(=O)c1cc2oc(-c3cnn4ccc(N5CCC[C@@H]5c5cc(F)ccc5F)nc34)nc2cc1OC` [Compound 178, methyl (R)-2-(5-(2-(2,5-difluorophenyl)pyrrolidin-1-yl)pyrazolo[1,5-a]pyrimidin-3-yl)-5-methoxybenzo[d]oxazole-6-carboxylate], the IC50 is not above 10 nM.

Staying with this assay, now noted: numeric values; read-out: Trk A Kinase IC50.
On to `N#Cc1cc2[nH]c(-c3cnn4ccc(N5CCC[C@@H]5c5cc(F)ccc5F)nc34)nc2cc1C(F)(F)F` [Compound 157, (R)-2-(5-(2-(2,5-difluorophenyl)pyrrolidin-1-yl)pyrazolo[1,5-a]pyrimidin-3-yl)-5-(trifluoromethyl)-1H-benzo[d]imidazole-6-carbonitrile], for which the IC50 was determined as 27 nM.
As to `COc1cc2[nH]c(-c3cnn4ccc(N5CCC[C@@H]5c5cc(F)ccc5F)nc34)nc2cc1C(=O)N(C)C` [Compound 161, (R)-2-(5-(2-(2,5-difluorophenyl)pyrrolidin-1-yl)pyrazolo[1,5-a]pyrimidin-3-yl)-6-methoxy-N,N-dimethyl-1H-benzo[d]imidazole-5-carboxamide], the IC50 was 0.9 nM.
Same read-out and setting: for `N#Cc1cc2nc(-c3cnn4ccc(N5CCC[C@@H]5c5cc(F)ccc5F)nc34)oc2cc1O` [Compound 177, (R)-2-(5-(2-(2,5-difluorophenyl)pyrrolidin-1-yl)pyrazolo[1,5-a]pyrimidin-3-yl)-6-hydroxybenzo[d]oxazole-5-carbonitrile] the value was 1.2 nM.
